A word on the Km: it is the substrate concentration at which the rate is half of its maximum.

Five compounds from patent US20180011102A1, “THE PROTEIN KINASE ACTIVITY OF PHOSPHOGLYCERATE KINASE 1 AS A TARGET FOR CANCER TREATMENT AND DIAGNOSIS” (Board of Regents, The University of Texas System, priority 2015, published 2018) can be followed below.

One assay has as its system PGK1 S203. Description: Hypoxia-induced PGK1 S203 phosphorylation in U87 cells (streptavidin pull-down / immunoblotting). Type of assay: cell-based, human. On the procedure:
(§1) FIG. 1B. […] FIG. 1C. […] Arrows indicate representative staining of mitochondrial PGK1. Dashed circles indicate mitochondria. FIG. 1D. […] Tubulin was used as a cytosolic protein marker. FIG. 1E. […] Mitochondria fractions and total cell lysates were prepared. FIG. 1F. […] Mitochondria fractions and total cell lysates were prepared. FIG. 1G. […] FIG. 1H. […] FIG. 1I. […] Mitochondrial fractions and total cell lysates were prepared.
FIGS. 11A-J. ERK1/2-mediated PGK1 S203 Phosphorylation Is Required for Mitochondrial Translocation of PGK1. Immunofluorescence, immunoprecipitation, and immunoblotting analyses were performed with the indicated antibodies. FIG. 11A. U87 cells stimulated with or without hypoxia for 6 h were stained with the indicated antibody, MitoTracker, and DAPI. FIG. 11B. […] FIG. 11C. U87 cells were stably transfected with or without vectors expressing HA-MEK1 Q56P with the indicated Flag-ERK2 proteins. Total cell lysates were prepared. FIG. 11D. […] FIG. 11E. Anti-PGK1 pS203 antibody was used to deplete the phosphorylated PGK1 from total cell lysates prepared from U87 cells treated with or without hypoxia for 6 h. The images were quantified by scanning densitometry. […] FIG. 11H. […] FIG. 11I. […] Mitochondria fractions and total cell lysates were prepared. FIG. 11J.
Streptavidin or glutathione agarose beads were incubated with cell lysate (1 mg/ml) or purified protein for 12 h. […]
For orientation: A western blot detects proteins with antibodies after separation by electrophoresis.

A further assay deals with EGFR. Description: Immunoblotting of hypoxia-induced EGFR phosphorylation in U87 cells. Type of assay: cell-based, human. To be noted: AG1478 100 nM for 30 min before hypoxia 6 h.
The next assay relates to ERK1/2. Description: Immunoblotting of hypoxia-induced ERK1/2 phosphorylation/activation in U87 cells. Type of assay: cell-based, human. As to the method:
(§2) FIGS. 10A-I. Mitochondrial Translocation of PGK1 is depended on ERK1/2-mediated PGK1 Phosphorylation. FIG. 10A. […] Immunoblotting analyses were performed with the indicated antibodies. FIG. 10B. […] Immunoblotting analyses were performed with the indicated antibodies. FIG. 10C. […] Immunofluorescence analyses were carried out using an anti-PGK1 antibody, MitoTracker, and DAPI. FIG. 10D. U87 cells stably transfected with a vector or Flag-ERK2 K52R were treated with or without hypoxia for 6 h. Mitochondria fractions and total cell lysates were prepared. FIG. 10E. U87 cells were stably transfected with or without vectors expressing HA-MEK1 Q56P with the indicated Flag-ERK2 proteins. Mitochondria fractions and total cell lysates were prepared. Immunoblotting analyses were performed with the indicated antibodies. FIG. 10F. U87 cells were treated with or without hypoxia for 6 h. […] FIG. 10G. Immobilized GST or GST-PGK1 protein was incubated with purified recombinant His-ERK2. Immunoblotting analyses were performed with the indicated antibodies. FIG. 10H. […] Immunoblotting analyses were performed with the indicated antibodies. FIG. 10I. […] Immunoblotting analyses were performed with the indicated antibodies.
FIGS. 11A-J. ERK1/2-mediated PGK1 S203 Phosphorylation Is Required for Mitochondrial Translocation of PGK1. […] The images were quantified by scanning densitometry. […]

Assay [1] deals with PGK1. Description: Hypoxia-induced mitochondrial translocation of PGK1 (mitochondrial fractionation, immunoblotting, immunofluorescence). Type of assay: cell-based, human. On the procedure:
as §1
FIGS. 9A-E. Hypoxia Induces Mitochondrial Translocation of PGK1. FIG. 9A. Total cell lysate, cytosolic, and mitochondrial fractions were prepared from U87 and U251 cells stimulated with or without hypoxia for 6 h. Immunoblotting analyses were performed with the indicated antibodies. Hypoxia-induced HIF1α expression (left panel) was a control for hypoxic stimulation. WCL: whole-cell lysate; Cyto: cytosol; Mito: mitochondria. WB, Western blot. FIG. 9B. Cytosolic and mitochondrial fractions were prepared from U87 and U251 cells stimulated with hypoxia for 6 h. Immunoblotting analyses of equal percentages of cytosolic and mitochondrial fraction were performed with the indicated antibodies. WCL: whole-cell lysate; Cyto: cytosol; Mito: mitochondria. Immunoblotting analyses were performed with the indicated antibodies. The images were quantified by scanning densitometry. FIG. 9C. U87 cells transfected with HIF1α siRNA or a scrambled siRNA before hypoxia stimulation for 6 h. […]

Assay [2] has as its system PGK1. In words: Determining KM of PGK1 (PGK1-dependent PDHK phosphorylation, Lineweaver-Burke plot). To be noted: purified recombinant WT PGK1, Sumo-PDHK1, 37° C., means ±SD of three experiments; read-out: Km of ATP for PGK1-dependent PDHK phosphorylation. The format is biochemical, human. On the procedure: FIGS. 14A-P. Mitochondrial PGK1 Phosphorylates PDHK1 at T338. FIG. 14A. […] Immunoblotting analyses were performed with the indicated antibodies. FIG. 14B. U87 cells (left panel) or U87/EGFR (right panel) cells expressing PGK1 shRNA with or without reconstituted expression of WT rPGK1 and the indicated mutants were stimulated with or without hypoxia for 6 h (left panel) or EGF (100 ng/ml) (right panel) for 6 h. These cells were incubated with [1-^14C]-pyruvate for 2 h. [1-^14C]CO2 production rates were measured. FIG. 14C. U87 cells expressing SFB-PDHK1, SFB-PDHK2, SFB-PDHK3, or SFB-PDHK4 were stimulated with or without hypoxia for 6 h. Mitochondrial fractions of these cells were prepared. […] ATP concentrations in mitoplast isolated from U87 or U251 cells treated with or without hypoxia for 6 h were measured. […] The glycolytic activities of bacterially purified WT PGK1, PGK1 T378P, PGK1 S203A, and PGK1 R39/K41A were measured. […]
Purified recombinant WT PGK1 (0.2 ng) was incubated in 100 μl of reaction buffer (50 mM Tris-HCl [pH 7.5], 600 ng/μl Sumo-PDHK1, 5 mM MgSO4, 1 mM Na3VO4, 1 mM DTT, 1.8 mM phosphorenolpyruvate, 7 units pyruvate kinase, 10 units lactic dehydrogenase, 0.01 mM NADH) with indicated ATP concentration at 37° C. in 96-well plate and were read by multidetection microplate readers (BMG LABTECH, Cary, N.C.) at 339 nm in kinetic mode for 5 min. […]

A further assay relates to U87 cells. Description: Cell proliferation assay under hypoxia. Type of assay: cell-based, human. To be noted: PGK1-depleted U87 cells reconstituted with WT PGK1 or PGK1 R39/K41A, DTT 1 mM, hypoxia 4 days. As to the method:
FIGS. 17A-H. Mitochondrial PGK1-Dependent PDHK1 Phosphorylation Promotes Cell Proliferation and Brain Tumorigenesis. FIGS. 17A-C. Data represent the means ±SD of three independent experiments. FIG. 17A. A total of 2×10^5 U251 cells with or without PGK1 shRNA (left panel) or PDHK1 shRNA (right panel) expression and with or without reconstituted expression of their WT counterparts and the indicated mutants were plated for 4 days under hypoxic conditions. The cells were then collected and counted. FIG. 17B. A total of 2×10^5 endogenous PGK1-depleted U87 cells with reconstituted expression of WT rPGK1 or rPGK1 R39/K41A were plated and treated with or without DTT (1 mM) during hypoxia for 4 days. The cells were then collected and counted. FIG. 17C. Mitochondria fractions and total cell lysates from endogenous PGK1-depleted U87/EGFRvIII cells with reconstituted expression of WT rPGK1 or rPGK1 S203A were prepared. […] The indicated U87/EGFRvIII cells (2×10^5) were plated for 3 days and were counted (right panel). […] The cells were then collected and counted. #p<0.05. […] Tumor volume was calculated using length a and width b: V=ab^2/2. […] Ki67-positive cells were quantified in 10 microscope fields. […] Apoptotic cells were quantified in 10 microscope fields.
A total of […] cells were plated and counted at 4 days after seeding in DMEM with 10% dialyzed bovine calf serum during hypoxia. […]

In another assay the test system is MAPK/APK2. Description: Immunoblotting of hypoxia-induced MAPK/APK2 phosphorylation in U87 cells. The format is cell-based, human. As to conditions: pretreated with SB203580 10 μM for 30 min, hypoxia 6 h. On the procedure:
as §2

The test system of assay [3] is PGK1. To be noted: U87/EGFR cells, U0126 20 μM for 30 min, EGF 100 ng/ml 6 h.
Description: EGFR-overxpressed U87 (U87/EGFR) cells pretreated with U0126 (20 μM) for 30 min were stimulated with or without EGF (100 ng/ml) for 6 h. Mitochondria fractions and total cell lysates were prepared.
U87, U87/EGFR, and U251 human GBM cells, BxPC-3 human pancreatic cancer cells, CHL1 human melanoma cells, and mouse embryo fibroblast (MEF) cells were maintained in Dulbecco's modified Eagle's medium (DMEM) supplemented with 10% dialyzed bovine calf serum without pyruvate (HyClone, Logan, Utah). […] For EGF treatments, cell cultures were made quiescent by growing them to confluence, and the medium was replaced with fresh medium containing 0.5% serum for 1 day. EGF at a final concentration of 100 ng/ml was used for cell stimulation.
Mitochondrial and cytosolic fractions were isolated using a mitochondria/cytosol fractionation kit from BioVision (Mountain View, Calif.). Mitochondrial proteins and cytosolic proteins were used in immunoblotting analyses.
The subject of a further assay is PIN1 and PGK1. To be noted: U87 cells, U0126 20 μM for 30 min before hypoxia 6 h.
Setting [4] is: U87 cells, AG1478 100 nM for 30 min before hypoxia 6 h.

Each structure is given as a SMILES string.

Description for PIN1 and PGK1: FIGS. 2A-F and H-I. Immunoblotting and immunoprecipitation analyses were carried out using antibodies against the indicated proteins. FIG. 2A U87 cells were pretreated with or without U0126 (20 μM) for 30 min before hypoxic stimulation for 6 h. […] U87 cells were treated with or without hypoxic stimulation for 6 h. A GST pull-down assay with the indicted GST-proteins was performed. […] U87 cells expressing the indicated PGK1 proteins were treated with or without hypoxic stimulation for 6 h.

Regarding `COc1cc2ncnc(Nc3cccc(Cl)c3)c2cc1OC` [AG1478], the “hypoxia-induced phosphorylation of PGK1” value in the assay on PGK1 S203 (setting [4]) is given as “blocked”. Also, the “hypoxia-induced EGFR phosphorylation” value in the assay on EGFR was “blocked”. In the assay on ERK1/2 (AG1478 100 nM for 30 min before hypoxia 6 h), the “hypoxia-induced ERK activation” value is listed as “blocked”. Besides, in the assay with PGK1 [1] (setting [4]), the “hypoxia-induced mitochondrial translocation of PGK1” value was “blocked”.
Regarding `Nc1ncnc2c1ncn2[C@@H]1O[C@H](COP(=O)(O)OP(=O)(O)OP(=O)(O)O)[C@@H](O)[C@H]1O` [ATP, adenosine triphosphate], the Michaelis-Menten constant (Km) with PGK1 [2] worked out at 560 ± 53 µM.
Regarding `O[C@@H](CS)[C@@H](O)CS` [DTT], in the assay with U87 cells, the hypoxia-induced growth suppression result is “partially rescued”.
Consider `C[S+]([O-])c1ccc(-c2nc(-c3ccncc3)c(-c3ccc(F)cc3)[nH]2)cc1` (stereo not drawn) [SB203580], for which the “hypoxia-induced phosphorylation of MAPK/APK2” value in the assay with MAPK/APK2 was “blocked”.
Turning to `N#CC(=C(/N)Sc1ccccc1N)/C(C#N)=C(\N)Sc1ccccc1N` [U0126], the “hypoxia-induced PGK1 S203 phosphorylation” value in the assay with PGK1 S203 (U87 cells expressing SFB-tagged PGK1, U0126 20 μM or SP600125 25 μM for 30 min before hypoxia 6 h) was “abolished”. Moreover, the “hypoxia-induced phosphorylation of ERK1/2” value with ERK1/2 (pretreated with U0126 20 μM for 30 min, hypoxia 6 h) is reported as “blocked”. Besides, the “EGF-induced mitochondrial translocation of PGK1” value in the assay on PGK1 [3] was “blocked”. Moreover, the “hypoxia-induced mitochondrial translocation of PGK1” value in the assay with PGK1 [1] (U87 and U251 cells, U0126 20 μM for 30 min before hypoxia 6 h) is given as “notably reduced”. The “hypoxia-increased interaction between endogenous PIN1 and PGK1” value in the assay with PIN1 and PGK1 is listed as “blocked”.
